“Also recorded” adds a separate entry of the source.
Test system: subjects with pulmonary hypertension (WHO group I PAH, WHO group III PH)
Test: Right heart catheterization: right heart/pulmonary artery hemodynamics, thermodilution cardiac output, PVR and SVR after inhaled NO and nebulized nitrite
Assay type: in vivo, human
Procedure: A total of 6 subjects with a confirmed diagnosis of pulmonary hypertension and meeting all inclusion/exclusion criteria were enrolled in the study which entailed a single right heart catheterization. The study population consisted of subjects with WHO group I PAH (n=3) and subjects with WHO group III PH (n=3) which received the dose escalation paradigm:
During the study right heart/pulmonary artery hemodynamics were measured as well as noninvasive systemic blood pressure monitoring and simultaneous RV echocardiography. Subjects were tested for the changes in pulmonary vascular resistance (PVR) measured by right heart catheterization and using thermodilution cardiac output measurement at time zero, at times 15, 30 and 45 minutes after completion of each nebulization dose.
Following right heart catheterization, the patient was stabilized for 20 minutes. Baseline blood collections and hemodynamic measurements were performed, followed by treatment with 40 ppm inhaled NO gas for […] with repeat hemodynamic measurements performed.
After stopping inhaled NO gas, a single dose of sildenafil was given if patients were on background sildenafil therapy at previously prescribed doses. 45-minutes after sildenafil dose baseline hemodynamics were performed.
Subjects were monitored carefully during and after the study treatment.
The study was conducted at the 3rd FL Catheterization Laboratory at Presbyterian Hospital of the University of Pittsburgh Medical Center (UPMC). Baseline vasoreactivity was recorded after Inhaled NO at 40 ppm for […]. […] Subjects were instructed to breathe as calmly, and deeply as possible until no more mist was formed in the nebulizer chamber. Subjects were also instructed to hold their breath for approximately 10 seconds after inhalation to allow the study drug to reach deep into the lungs.

[1] = Patient 5, nitrite 45 mg inhaled, 60 min
[2] = Patient 5, nitrite 90 mg inhaled, 15 min
[3] = Patient 5, nitrite 90 mg inhaled, 30 min
[4] = Patient 5, nitrite 90 mg inhaled, 45 min
[5] = Patient 5, nitrite 90 mg inhaled, 60 min

Compound: O=NO [nitrite, sodium nitrite]
- PCWP [1]: 7
- PVR [1]: 6.50
- PVR/SVR [1]: 0.49
- RA [1]: 3
- RVD [1]: 1
- RVS [1]: 76
- SVR [1]: 13.16
- TPR [1]: 8.07
- mPAP [1]: 36.01
- CI [2]: 2.77
- CO [2]: 4.91
- PAD [2]: 16
- PAS [2]: 76
- PCWP [2]: 2
- PVR [2]: 6.93
- PVR/SVR [2]: 0.50
- RA [2]: 1
- SVR [2]: 13.778
- TPR [2]: 7.33
- mPAP [2]: 36.01
- CI [3]: 2.81
- CO [3]: 4.97
- PAD [3]: 16
- PAS [3]: 69
- PCWP [3]: 3
- PVR [3]: 6.17
- PVR/SVR [3]: 0.47
- RA [3]: 1
- SVR [3]: 13.21
- TPR [3]: 6.78
- mPAP [3]: 33.67
- CI [4]: 2.86
- CO [4]: 5.07
- PAD [4]: 13
- PAS [4]: 70
- PCWP [4]: 3
- PVR [4]: 5.72
- PVR/SVR [4]: 0.47
- RA [4]: 1
- SVR [4]: 12.16
- TPR [4]: 6.31
- mPAP [4]: 32.01
- CI [5]: 3.24
- CO [5]: 5.73
- PAD [5]: 14
- PAS [5]: 74
- PCWP [5]: 3
- PVR [5]: 5.41
- PVR/SVR [5]: 0.44
- RA [5]: 1
- SVR [5]: 12.33
- TPR [5]: 5.93
- mPAP [5]: 34.01
- CI (Patient 6, nitrite 45, 15 min): 2.9849
- CO (Patient 6, nitrite 45, 15 min): 5.94
- PAD (Patient 6, nitrite 45, 15 min): 22
- PAS (Patient 6, nitrite 45, 15 min): 51
- PCWP (Patient 6, nitrite 45, 15 min): 12
- PVR (Patient 6, nitrite 45, 15 min): 3.3116
- PVR/SVR (Patient 6, nitrite 45, 15 min): 0.2878
- RA (Patient 6, nitrite 45, 15 min): 7
- SVR (Patient 6, nitrite 45, 15 min): 11.505
- TPR (Patient 6, nitrite 45, 15 min): 5.3318
- mPAP (Patient 6, nitrite 45, 15 min): 31.671
- CI (Patient 6, nitrite 45, 30 min): 2.8769
- CO (Patient 6, nitrite 45, 30 min): 47.25
- PAD (Patient 6, nitrite 45, 30 min): 20
- PAS (Patient 6, nitrite 45, 30 min): 48
- PCWP (Patient 6, nitrite 45, 30 min): 10
- PVR (Patient 6, nitrite 45, 30 min): 3.3777
- PVR/SVR (Patient 6, nitrite 45, 30 min): 0.2427
- RA (Patient 6, nitrite 45, 30 min): 6
- SVR (Patient 6, nitrite 45, 30 min): 13.917
- TPR (Patient 6, nitrite 45, 30 min): 5.1244
- mPAP (Patient 6, nitrite 45, 30 min): 29.337
- CI (Patient 6, nitrite 45, 45 min): 3.0704
- CO (Patient 6, nitrite 45, 45 min): 6.11
- PAD (Patient 6, nitrite 45, 45 min): 23
- PAS (Patient 6, nitrite 45, 45 min): 52
- PCWP (Patient 6, nitrite 45, 45 min): 9
- PVR (Patient 6, nitrite 45, 45 min): 3.8741
- PVR/SVR (Patient 6, nitrite 45, 45 min): 0.2958
- RA (Patient 6, nitrite 45, 45 min): 6
- SVR (Patient 6, nitrite 45, 45 min): 13.095
- TPR (Patient 6, nitrite 45, 45 min): 5.3471
- mPAP (Patient 6, nitrite 45, 45 min): 32.671
- CI (Patient 6, nitrite 45, 60 min): 2.9196
- CO (Patient 6, nitrite 45, 60 min): 5.81
- PAD (Patient 6, nitrite 45, 60 min): 28
- PAS (Patient 6, nitrite 45, 60 min): 50
- PCWP (Patient 6, nitrite 45, 60 min): 8
- PVR (Patient 6, nitrite 45, 60 min): 4.7053
- PVR/SVR (Patient 6, nitrite 45, 60 min): 0.3417
- RA (Patient 6, nitrite 45, 60 min): 6
- SVR (Patient 6, nitrite 45, 60 min): 13.771
- TPR (Patient 6, nitrite 45, 60 min): 6.0822
- mPAP (Patient 6, nitrite 45, 60 min): 35.338
- CI (Patient 6, nitrite 90, 15 min): 3.3568
- CO (Patient 6, nitrite 90, 15 min): 6.68
- PAD (Patient 6, nitrite 90, 15 min): 24
- PAS (Patient 6, nitrite 90, 15 min): 52
- PCWP (Patient 6, nitrite 90, 15 min): 9
- PVR (Patient 6, nitrite 90, 15 min): 3.6434
- PVR/SVR (Patient 6, nitrite 90, 15 min): 0.3444
- RA (Patient 6, nitrite 90, 15 min): 6
- SVR (Patient 6, nitrite 90, 15 min): 10.58
- TPR (Patient 6, nitrite 90, 15 min): 4.9907
- mPAP (Patient 6, nitrite 90, 15 min): 33.338
- CI (Patient 6, nitrite 90, 30 min): 3.6683
- CO (Patient 6, nitrite 90, 30 min): 7.3
- PAD (Patient 6, nitrite 90, 30 min): 20
- PAS (Patient 6, nitrite 90, 30 min): 48
- PCWP (Patient 6, nitrite 90, 30 min): 6
- PVR (Patient 6, nitrite 90, 30 min): 3.1969
- PVR/SVR (Patient 6, nitrite 90, 30 min): 0.3125
- RA (Patient 6, nitrite 90, 30 min): 6
- SVR (Patient 6, nitrite 90, 30 min): 10.23
- TPR (Patient 6, nitrite 90, 30 min): 4.0188
- mPAP (Patient 6, nitrite 90, 30 min): 29.337
- CI (Patient 6, nitrite 90, 45 min): 3.7085
- CO (Patient 6, nitrite 90, 45 min): 7.38
- PAD (Patient 6, nitrite 90, 45 min): 24
- PAS (Patient 6, nitrite 90, 45 min): 52
- PCWP (Patient 6, nitrite 90, 45 min): 4
- PVR (Patient 6, nitrite 90, 45 min): 3.9753
- PVR/SVR (Patient 6, nitrite 90, 45 min): 0.4074
- RA (Patient 6, nitrite 90, 45 min): 6
- SVR (Patient 6, nitrite 90, 45 min): 9.7574
- TPR (Patient 6, nitrite 90, 45 min): 4.5173
- mPAP (Patient 6, nitrite 90, 45 min): 33.338
- CI (Patient 6, nitrite 90, 60 min): 4.3417
- CO (Patient 6, nitrite 90, 60 min): 8.64
- PAD (Patient 6, nitrite 90, 60 min): 28
- PAS (Patient 6, nitrite 90, 60 min): 55
- PCWP (Patient 6, nitrite 90, 60 min): 4
- PVR (Patient 6, nitrite 90, 60 min): 3.82
- PVR/SVR (Patient 6, nitrite 90, 60 min): 0.4877
- RA (Patient 6, nitrite 90, 60 min): 8
- RVD (Patient 6, nitrite 90, 60 min): 8
- RVS (Patient 6, nitrite 90, 60 min): 47
- SVR (Patient 6, nitrite 90, 60 min): 7.8329
- TPR (Patient 6, nitrite 90, 60 min): 4.2829
- mPAP (Patient 6, nitrite 90, 60 min): 37.005
- RA pressure (right atrial pressure) (patients with PAH (WHO Group 1 and Group 3; n=6), inhaled doses of 45 mg and 90 mg): dose-dependent reduction
- PCWP (pulmonary capillary wedge pressure) (patients with PAH (WHO Group 1 and Group 3; n=6), inhaled doses of 45 mg and 90 mg, listed as inhaled nitrite): lowers; also recorded: dose-dependent reduction
- response of patients non-responsive to inhaled NO (some patients of the study): responsive

From patent publication US11986493B2 (University of Pittsburgh—Of the Commonwealth System of …, priority 2013, dated 2024)
